The values that follow come from US8741897B2, “Glucocorticoid mimetics, methods of making them, pharmaceutical compositions and uses thereof” (Boehringer Ingelheim Pharmaceuticals Inc., priority 2003, dated 2014).

The assay deals with glucocorticoid receptor function. The experiment in a line: one or more of the above assays (GR binding and glucocorticoid receptor cell assays: aromatase, IL-6, TAT, MMTV-Luc, IL-8, ICAM-Luc). It is filed as cell-based. The note with it: assay not specified per compound.

For `Cc1ccc(F)cc1C(C)(C)CC(O)(Cc1cc2cc(-c3ccccc3)ncc2[nH]1)C(C)(C)C` (stereo not drawn) [5-(5-Fluoro-2-methylphenyl)-2,2,5-trimethyl-3-(5-phenyl-1H-pyrrolo[2,3-c]pyridin-2-ylmethyl)hexan-3-ol], the “activity as agonists of the glucocorticoid receptor function in one or more of the above assays” value (shortened to “activity as agonists”) is “agonists”.

As to `CC(C)Oc1cc2cc(CC(O)(CC(C)(C)c3cccc(F)c3)C(F)(F)F)[nH]c2cn1` (stereo not drawn) [1,1,1-Trifluoro-4-(3-fluorophenyl)-2-(5-isopropoxy-1H-pyrrolo[2,3-c]pyridin-2-ylmethyl)-4-methylpentan-2-ol], the “activity as agonists” value is “potent agonists”.

For the molecule `CC(C)(CC(O)(Cc1cc2ccncc2[nH]1)C(F)(F)F)c1cccc(CN2CCOCC2)c1` (stereo not drawn) [1,1,1-Trifluoro-4-methyl-4-(3-morpholin-4-ylmethylphenyl)-2-(1H-pyrrolo[2,3-c]pyridin-2-ylmethyl)pentan-2-ol], the “activity as agonists” value is reported as “potent agonists”.

On to `Cc1ccc(F)cc1C(C)(C)CC(O)(Cc1cc2nnccc2[nH]1)C(F)(F)F` (stereo not drawn) [1,1,1-Trifluoro-4-(5-fluoro-2-methylphenyl)4-methyl-2-(5H-pyrrolo[3,2-c]pyridazin-6-ylmethyl)pentan-2-ol], for which the “activity as agonists” value was “potent agonists”.

Regarding `COc1ccc(-c2ccsc2)cc1C(C)(C)CC(O)(Cc1cc2cc(Cl)ncc2[nH]1)C(F)(F)F` (stereo not drawn) [2-(5-Chloro-1H-pyrrolo[2,3-c]pyridin-2-ylmethyl)-1,1,1-trifluoro-4-(2-methoxy-5-thiophen-3-ylphenyl)-4-methylpentan-2-ol], the “activity as agonists” value is reported as “potent agonists”.

Turning to `CC(C)(CC(O)(Cc1cc2ccncc2[nH]1)C(F)(F)F)c1cc(Br)ccc1O` (stereo not drawn) [4-Bromo-2-[4,4,4-trifluoro-3-hydroxy-1,1-dimethyl-3-(1H-pyrrolo[2,3-c]pyridin-2-ylmethyl)butyl]phenol], the “activity as agonists” value is reported as “potent agonists”.

As to `COc1ccc(-c2ccccc2Cl)cc1C(C)(C)CC(O)(Cc1cc2cc(N3CCCCC3)ncc2[nH]1)C(F)(F)F` (stereo not drawn) [4-(2′-Chloro-4-methoxybiphenyl-3-yl)-1,1,1-trifluoro-4-methyl-2-(5-piperidin-1-yl-1H-pyrrolo[2,3-c]pyridin-2-ylmethyl)pentan-2-ol], the “activity as agonists” value is on record as “potent agonists”.

For `CC(C)(CC(O)(Cc1cc2cnccc2[nH]1)C(F)(F)F)c1cc(-c2cccnc2)ccc1O` (stereo not drawn) [4-Pyridin-3-yl-2-[4,4,4-trifluoro-3-hydroxy-1,1-dimethyl-3-(1H-pyrrolo[3,2-c]pyridin-2-ylmethyl)butyl]phenol], the “activity as agonists” value is recorded as “potent agonists”.

For the molecule `CC(C)(CC(O)(Cc1cc2ccncc2[nH]1)C(F)(F)F)c1cc(-c2ccsc2)ccc1O` (stereo not drawn) [4-Thiophen-3-yl-2-[4,4,4-trifluoro-3-hydroxy-1,1-dimethyl-3-(1H-pyrrolo[2,3-c]pyridin-2-ylmethyl)butyl]phenol], the “activity as agonists” value was “potent agonists”.

Regarding `Cc1cncc2[nH]c(CC(O)(CC(C)(C)c3cccc(F)c3)C(F)(F)F)cc12` (stereo not drawn) [1,1,1-Trifluoro-4-(3-fluorophenyl)-4-methyl-2-(4-methyl-1H-pyrrolo[2,3-c]pyridin-2-ylmethyl)pentan-2-ol], the “activity as agonists” value is recorded as “potent agonists”.

Turning to `Cc1c(CC(O)(CC(C)(C)c2cccc(F)c2)C(F)(F)F)[nH]c2cnccc12` (stereo not drawn) [1,1,1-Trifluoro-4-(3-fluorophenyl)-4-methyl-2-(3-methyl-1H-pyrrolo[2,3-c]pyridin-2-ylmethyl)pentan-2-ol], the “activity as agonists” value is “potent agonists”.

For `CC(C)(CC(O)(Cn1ccc2c1CCCC2=O)C(F)(F)F)c1cc(-c2cncnc2)ccc1O` (stereo not drawn) [1-[2-Hydroxy-4-(2-hydroxy-5-pyrimidin-5-ylphenyl)-4-methyl-2-trifluoromethylpentyl]-1,5,6,7-tetrahydroindol-4-one], the “activity as agonists” value is recorded as “agonists”.

For `CC(C)(CC(O)(Cc1[nH]c2ccccc2c1Br)C(F)(F)F)c1cccc(F)c1` (stereo not drawn) [2-(3-Bromo-1H-indol-2-ylmethyl)-1,1,1-trifluoro-4-(3-fluorophenyl)-4-methylpentan-2-ol], the “activity as agonists” value is recorded as “potent agonists”.

Turning to `Cc1nccc2[nH]c(CC(O)(CC(C)(C)c3ccc(F)cc3O)C(F)(F)F)cc12` (stereo not drawn) [5-Fluoro-2-[4,4,4-trifluoro-3-hydroxy-1,1-dimethyl-3-(4-methyl-1H-pyrrolo[3,2-c]pyridin-2-ylmethyl)butyl]phenol], the “activity as agonists” value is on record as “potent agonists”.

As for `CC(C)(CC(O)(Cc1cc2ccncc2[nH]1)C(F)(F)F)c1cc(-c2ccccc2)ccc1O` (stereo not drawn) [3-[4,4,4-Trifluoro-3-hydroxy-1,1-dimethyl-3-(1H-pyrrolo[2,3-c]pyridin-2-ylmethyl)butyl]biphenyl-4-ol], the “activity as agonists” value was “potent agonists”.

Turning to `CC(C)Oc1cc2cc(CC(O)(CC(C)(C)c3cc(-c4ccccc4)cc4c3OCC4)C(F)(F)F)[nH]c2cn1` (stereo not drawn) [1,1,1-Trifluoro-2-(5-isopropoxy-1H-pyrrolo[2,3-c]pyridin-2-ylmethyl)-4-methyl-4-(5-phenyl-2,3-dihydrobenzofuran-7-yl)pentan-2-ol], the “activity as agonists” value is on record as “potent agonists”.

With `CC(C)(CC(O)(Cc1cc2nc(-c3ccccc3)ncc2[nH]1)C(F)(F)F)c1cc(Cl)cc2c1OCC2` (stereo not drawn) [4-(5-Chloro-2,3-dihydrobenzofuran-7-yl)-1,1,1-trifluoro-4-methyl-2-(2-phenyl-5H-pyrrolo[3,2-d]pyrimidin-6-ylmethyl)pentan-2-ol], the “activity as agonists” value is “potent agonists”.

In the case of “4-Pyrimidin-5-yl-2-[4,4,4-trifluoro-3-hydroxy-1,1-dimethyl-3-(1H-pyrrolo[2,3-c]pyridin-ylmethyl)butyl]phenol”, the “activity as agonists” value is given as “potent agonists”.

As for `CC(C)(CC(O)(Cc1cc2cc(C#N)ncc2[nH]1)C(F)(F)F)c1cc(Cl)cc2c1OCC2` (stereo not drawn) [2-[4-(5-Chloro-2,3-dihydrobenzofuran-7-yl)-2-hydroxy-4-methyl-2-trifluoromethylpentyl]-1H-pyrrolo[2,3-c]pyridine-5-carbonitrile], the “activity as agonists” value is on record as “potent agonists”.

Take `COc1ccc(-c2ccccc2)cc1C(C)(C)CC(O)(Cc1cc2cc(OC(C)C)ncc2[nH]1)C(F)(F)F` (stereo not drawn) [1,1,1-Trifluoro-2-(5-isopropoxy-1H-pyrrolo[2,3-c]pyridin-2-ylmethyl)-4-(4-methoxybiphenyl-3-yl)-4-methylpentan-2-ol]: the “activity as agonists” value is “potent agonists”.

For the molecule `CC(C)(CC(O)(Cc1cc2cc(-c3ccccc3)nnc2[nH]1)C(F)(F)F)c1cccc(F)c1` (stereo not drawn) [1,1,1-Trifluoro-4-(3-fluorophenyl)-4-methyl-2-(3-phenyl-7H-pyrrolo[2,3-c]pyridazin-6-ylmethyl)pentan-2-ol], the “activity as agonists” value was “potent agonists”.
